# After the bases stand the sugars from the 5' end (letter, count) and the backbone: PS all phosphorothioate, else s phosphorothioate and o phosphodiester by linkage. Methylation of C is not given here. e = 2'-O-(2-methoxyethyl) (MOE); k = constrained ethyl (cEt); d = 2'-deoxy (DNA); m = 2'-O-methyl
# Biological target: HSD17B13
# Conditions: ASO, HepaRG
Sequence,target mRNA inhibition (1 µM) [%],further results
"ATAGGACATGGAGACA (sugars k3 d10 k3, PS)",82,target mRNA inhibition (0.02 µM): 14%; target mRNA inhibition (0.078 µM): 18%; target mRNA inhibition (0.313 µM): 48%; target mRNA inhibition (1.25 µM): 74%; target mRNA inhibition (5 µM): 79%
"CTATCAGAACAGTTCA (sugars k3 d10 k3, PS)",48,–
"GTTATTAGAAGTCAGC (sugars k3 d10 k3, PS)",56,–
"AAAAAATTGGTTTCGA (sugars k3 d10 k3, PS)",20,–
"CATTATAAGCTAACTA (sugars k3 d10 k3, PS)",39,–
"GTGGCCATGATTTCTC (sugars k3 d10 k3, PS)",40,–
"GTTACATTACAGCCTT (sugars k3 d10 k3, PS)",71,target mRNA inhibition (0.02 µM): 0%; target mRNA inhibition (0.078 µM): 18%; target mRNA inhibition (0.313 µM): 50%; target mRNA inhibition (1.25 µM): 73%; target mRNA inhibition (5 µM): 86%
"GCTACTTGAACAGTCT (sugars k3 d10 k3, PS)",66,–
"GCTAGTGCCAAACCAA (sugars k3 d1 m1 d8 k3, PS)",65,–
"CTGGTAAAGGTAAGGG (sugars k3 d10 k3, PS)",58,–
"CTGATTACAGCATCAA (sugars k3 d10 k3, PS)",40,–
"TAGTATAGTTATCTTC (sugars k3 d1 m1 d8 k3, PS)",13,–
"TAACTCTATTGATTGG (sugars k3 d10 k3, PS)",51,–
"GAGATAAAGCTGCCTG (sugars k3 d9 k3 e1, PS)",55,–
"CCTAGGGAGGAGGTAC (sugars k3 d10 k3, PS)",34,–
"CTCTAATGTTTCTTGA (sugars k3 d10 k3, PS)",53,–
"CAATAGTACTATAGTA (sugars k3 d10 k3, PS)",14,–
"CTAATAACTACATGAC (sugars k3 d10 k3, PS)",18,–
"TTCTCTTGGGTCCATT (sugars k3 d10 k3, PS)",44,–
"ATACTATTCTCCAACT (sugars k3 d10 k3, PS)",25,–
"GTTGCACCGTTTTGGG (sugars k3 d1 m1 d8 k3, PS)",38,–
"AGTTCTGATGTCAGAC (sugars k3 d10 k3, PS)",40,–
"TGTTTATGTAAGCACA (sugars k3 d10 k3, PS)",74,–
"TTGACATAACTTCATA (sugars k3 d10 k3, PS)",15,–

Sequence,target mRNA inhibition (1 µM) [%],further results
"CAAGGGAACACTGTCA (sugars k3 d10 k3, PS)",58,–
"TGTGGCATGGCTACAG (sugars k3 d9 k3 e1, PS)",25,–
"TGGTGGACTTCAGAGT (sugars k3 d10 k3, PS)",17,–
"GTTTCTAGGTCAGTAG (sugars k3 d10 k3, PS)",73,–
"CATAACTTCATAGTGG (sugars kkdddddddddkekek, PS)",15,–
"AGTAAGGTAAAGTCTA (sugars k3 d10 k3, PS)",55,–
"CCTATTTGTAATATTG (sugars k3 d10 k3, PS)",0,–
"AAATATGTCCAGGTTG (sugars k3 d1 m1 d8 k3, PS)",63,–
"CTTATGTAATAGCCAG (sugars k2 d10 k3 e1, PS)",70,–
"ATGTTTATGTAAGCAC (sugars k3 d9 k3 e1, PS)",73,target mRNA inhibition (0.02 µM): 6%; target mRNA inhibition (0.078 µM): 0%; target mRNA inhibition (0.313 µM): 39%; target mRNA inhibition (1.25 µM): 66%; target mRNA inhibition (5 µM): 70%
"GCTAAAAGCTCACCAA (sugars k3 d10 k3, PS)",26,–
"AGAGAGCGATAGATCT (sugars k3 d10 k3, PS)",15,–
"TTAGUTAGAATAGTCT (sugars k3 d1 m1 d8 k3, PS)",35,–
"TTCTGTGGCATGGCTA (sugars k3 d9 k3 e1, PS)",59,–
"AATTGATACACCAATG (sugars kkdddddddddkekek, PS)",50,–
"TGCTAGTGCCAAACCA (sugars k3 d9 k3 e1, PS)",73,target mRNA inhibition (0.02 µM): 8%; target mRNA inhibition (0.078 µM): 16%; target mRNA inhibition (0.313 µM): 38%; target mRNA inhibition (1.25 µM): 54%; target mRNA inhibition (5 µM): 71%
"GCTAGGGAAATCTTTC (sugars k3 d10 k3, PS)",66,–
"GATGTCAGACCTCTGT (sugars k3 d10 k3, PS)",6,–
"GTGGCATGGCTACAGA (sugars k3 d9 k3 e1, PS)",38,–
"CTGCTAGTGCCAAACC (sugars k3 d10 k3, PS)",74,–
"TCATAGTGGACTTCAT (sugars k3 d1 m1 d8 k3, PS)",44,–
"GGGAAAAAGTGTGTTC (sugars k3 d10 k3, PS)",20,–
"CTGATTTAGAGAGCGA (sugars k3 d10 k3, PS)",61,–
"ATTACATATCAATGCC (sugars k3 d10 k3, PS)",36,–

Sequence,target mRNA inhibition (1 µM) [%],further results
"AATTTGTGAACCTGCA (sugars k3 d10 k3, PS)",20,–
"TGCTGAGAAGATCGGC (sugars k3 d10 k3, PS)",7,–
"ACAGTCTTAAACCTTC (sugars k3 d9 k3 e1, PS)",73,target mRNA inhibition (0.02 µM): 13%; target mRNA inhibition (0.078 µM): 31%; target mRNA inhibition (0.313 µM): 52%; target mRNA inhibition (1.25 µM): 71%; target mRNA inhibition (5 µM): 80%
"TAGCAAGCCAACAGAG (sugars k3 d10 k3, PS)",21,–
"GAAGTATGTGAACTCC (sugars k3 d10 k3, PS)",56,–
"TCTCCATCATCGATGG (sugars k3 d10 k3, PS)",24,–
"AAAATGGTGGCGAGGC (sugars k3 d10 k3, PS)",0,–
"ACAGTAAAATTATGCC (sugars k3 d9 k3 e1, PS)",62,–
"ATCTCACAAGGGAAAT (sugars k3 d10 k3, PS)",73,–
"GACAACAAACAATGGG (sugars k3 d10 k3, PS)",39,–
"CAGTCTTAAACCTTCC (sugars kkdddddddddkekek, PS)",51,–
"TTTCGCTACTGTAGGC (sugars k3 d10 k3, PS)",62,–
"TTTAGTTAGAATAGTC (sugars k3 d10 k3, PS)",15,–
"ATAGTAATTGCTATAG (sugars k3 d10 k3, PS)",36,–
"CATATTCCCTGATGAT (sugars k3 d10 k3, PS)",14,–
"CTGCATTAATGCCACC (sugars k3 d1 m1 d8 k3, PS)",52,–
"TGAGAAGATCGGCTGG (sugars k3 d10 k3, PS)",37,–
"TTGGTGAACCCAGTAT (sugars k3 d10 k3, PS)",31,–
"GCTGAGAAGATCGGCT (sugars k3 d10 k3, PS)",10,–
"AAGACAGACCAAGTAG (sugars k3 d10 k3, PS)",16,–
"ATTTTTAATACGACTT (sugars k3 d10 k3, PS)",35,–
"GATATTCTGTGGCATG (sugars k3 d9 k3 e1, PS)",71,target mRNA inhibition (0.02 µM): 8%; target mRNA inhibition (0.078 µM): 0%; target mRNA inhibition (0.313 µM): 43%; target mRNA inhibition (1.25 µM): 65%; target mRNA inhibition (5 µM): 80%
"GATACACCAATGCAGT (sugars k3 d10 k3, PS)",73,–
"GATATACTGTCCCAGC (sugars k3 d10 k3, PS)",34,–

Sequence,target mRNA inhibition (1 µM) [%],further results
"TAAATTACTCCGTTCT (sugars k3 d10 k3, PS)",36,–
"AACCTTCCCTGTGTAA (sugars k3 d10 k3, PS)",38,–
"TTGATCTCTTAGCTGT (sugars k3 d10 k3, PS)",74,–
"CTGAAATTGATACACC (sugars k3 d9 k3 e1, PS)",75,target mRNA inhibition (0.02 µM): 0%; target mRNA inhibition (0.078 µM): 17%; target mRNA inhibition (0.313 µM): 51%; target mRNA inhibition (1.25 µM): 61%; target mRNA inhibition (5 µM): 81%
"GATGCTAAAAGCTCAC (sugars k3 d10 k3, PS)",46,–
"AGTAATCAGTTTTCCT (sugars k3 d10 k3, PS)",65,–
"GTCCAGAAGTATGTGA (sugars k3 d10 k3, PS)",9,–
"AGTATGTTTATGTAAG (sugars k3 d10 k3, PS)",48,–
"TGGCCTTACCAGAATT (sugars k3 d10 k3, PS)",46,–
"CCCAATTATGAATCTG (sugars k3 d10 k3, PS)",62,–
"CTGCCCTAGATTCTAC (sugars k3 d10 k3, PS)",33,–
"TATGUAATAGCCAGTA (sugars k3 d1 m1 d8 k3, PS)",43,–
"ACTCTAAATACCCTTG (sugars k3 d10 k3, PS)",16,–
"CCATAAAGCTGGATTG (sugars k3 d10 k3, PS)",40,–
"GACTACATTAACACCA (sugars k3 d10 k3, PS)",58,–
"TTGCAGAAATTCACCT (sugars kkdddddddddkekek, PS)",46,–
"TTTAGTCAGGTAGAGT (sugars k3 d10 k3, PS)",30,–
"AACTTGATCTCTTAGC (sugars k3 d10 k3, PS)",64,–
"TTTTAACTACCCTCAC (sugars k3 d10 k3, PS)",2,–
"AATAAAGCTTTGCAGC (sugars k3 d10 k3, PS)",26,–
"GACCTCAAATGTCTTG (sugars k3 d10 k3, PS)",12,–
"GTATGTTTATGTAAGC (sugars k3 d1 m1 d8 k3, PS)",66,target mRNA inhibition (0.02 µM): 0%; target mRNA inhibition (0.078 µM): 0%; target mRNA inhibition (0.313 µM): 10%; target mRNA inhibition (1.25 µM): 72%; target mRNA inhibition (5 µM): 90%
"AAGTTTTTAAGAGGCA (sugars k3 d10 k3, PS)",77,target mRNA inhibition (0.02 µM): 0%; target mRNA inhibition (0.078 µM): 0%; target mRNA inhibition (0.313 µM): 43%; target mRNA inhibition (1.25 µM): 73%; target mRNA inhibition (5 µM): 96%

# Reference: the OligoGym collection
